# System: HCT-116 cell lines
# Test: MTT cell proliferation assay
# Type: cell-based
# Procedure: For cell culture experiments various cancer cell lines, HCT-116 colon cancer, U87-MG glial tumor, MCF7 breast cancer cell lines were used. Cells were seeded with high glucose DMEM medium (Biosera) supplemented with 10% FBS (Gibco) and 1× penicillin/streptomycin (Multicell). Twenty-four hours prior to molecule treatment, 10,000 cells were seeded into each well of 24-well cell culture plates. Molecules were used by preparing 4 mM stock solution in DMSO (Amresco). For molecule treatment, molecule stock solutions were diluted in DMEM with 10% FBS and added onto cells in each corresponding well. Final concentration of vehicle DMSO was 2% at maximum. […] We calculated the number of cells to be seeded to make sure that none of the cells reaches more than 60% confluency during the treatment period, as higher plate confluency levels would slow down cell proliferation independently from the molecule treatment.
# Values of half-maximal inhibitory concentration were (IC50) determined by MTT cell proliferation assays. […] 570 nm absorbance values were recorded and IC50 values were calculated by dose response—inhibition curves and nonlinear regression analysis on GraphPad Prism 8 software. […] Following the initial incubation day, molecules were added and after incubation with MTT at 37° C. for 4 hours, formazan was solubilized with DMSO (Sigma-Aldrich, St. Louis, USA) and absorbance was measured at 570 nm. […]
compound,measurement,setting,value
Cc1ccc(C2CC(=O)N=C(SCC(=O)Nc3ccc(Br)cc3Cl)C2C#N)cc1 (centres unmarked) [compound of formula I],cell proliferation compared with vehicle group (FIG. 1),"HCT-116 cells, cell viability over time vs vehicle (max 2% DMSO)",reduced proliferation and apoptotic cell structures
same,IC50,"Homo sapiens, 72 h, HCT-116 colon cancer cells, single treatment, three days results, 570 nm absorbance, read-out: IC50 value (half-maximal inhibitory concentration)",24 µM

# From US12297175B2, “Physics-driven discovery of novel small therapeutic compounds for use as a BCL-2 inhibitor” (BAHCESEHIR UNIVERSITESI, priority 2020, dated 2025)
